Results taken from patent publication US5948785A, “Heterocyclic amide compounds and pharmaceutical use of the same” (The Green Cross Corporation, priority 1995, dated 1999).

These compounds were tested against T1, human heart chymase (Homo sapiens, UniProt P23946) (assay: Inhibitory activity on amidase activity of human heart chymase). Details: 5 nM chymase; succinyl-alanyl-alanyl-prolyl-phenylalanine-p-nitroanilide 2.5 mM; pH 9.0; Easson-Stedman plot; read-out: K^i (human heart chymase inhibitory activity).
T1 sequence (P23946 22-247): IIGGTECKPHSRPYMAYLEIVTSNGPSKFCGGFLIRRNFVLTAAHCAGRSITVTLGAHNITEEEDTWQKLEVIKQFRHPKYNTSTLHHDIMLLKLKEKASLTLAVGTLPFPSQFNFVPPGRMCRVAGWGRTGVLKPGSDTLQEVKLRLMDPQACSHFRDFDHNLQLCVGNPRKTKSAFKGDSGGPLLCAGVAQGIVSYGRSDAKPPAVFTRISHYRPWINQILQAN
Type: biochemical
Procedure: The effectiveness of the inhibitory activity of compound (I) of the present invention was evaluated based on the inhibitory activity on amidase activity of human heart chymase, which was determined as in the following.
The inhibitory activity was quantitatively determined through variation in fractional residual activity of the enzyme caused by the inventive compound in defined serial concentration (<×1, <×10, <×100-fold equivalents) relative to 5 nM chymase in the presence of synthetic substrate, succinyl-alanyl-alanyl-prolyl-phenylalanine-p-nitroanilide (final concentration 2.5 mM). The inhibitory effect was analyzed by least square regression of Easson-Stedman plot (Proc. Roy. Soc. B. 1936, 121, p. 141) utilizing bimolecular equilibrium reaction linearization formula. The inhibitory activity was evaluated by the apparent inhibitory constant (Kiapp) obtained by this analysis and inhibitory constant (Ki) calculated from final substrate concentration in the reaction mixture and Km values separately determined. The quantitative determination of initial rate of the enzyme reaction was spectrophotometrically detected in terms of an increased amount of p-nitroaniline at 405 nm produced by hydrolysis of the substrate. The chymase inhibitory activity of the compound of the present invention was calculated as ratio of residual activity in the presence of inhibitor relative to enzyme activity in the absence of inhibitor, and incorporation of the determination values was completed at a level less than initial rate guarantee absorbance at a concentration of the substrate used for the enzyme, after which analysis was performed.
The reaction mixture consisted of an Na2 B4 O7 (100 mM)-KH2 PO4 (50 mM) buffer (pH 9.0, 120 μl) containing 0.1% Triton-X100, the inventive compound dissolved in 20 μl of 10% dimethyl sulfoxide (DMSO), 10% bovine serum albumin dissolved in 20 μl of the same buffer, substrate dissolved in 20 μl of DMSO, and 20 μl of chymase, thus amounting to 200 μl in total.
Starting with the absorbance immediately after addition of the enzyme, increases in absorbance were recorded as a progressive curve taken precisely at equal time intervals.
From the above data, the difference between absorbances at completion of the reaction and immediately after addition was used to quantitatively determine the residual activity of the sample added with the inhibitor relative to a control wherein the inhibitor was not added. Alternatively, reaction rates of the control and the sample added with the inhibitor were calculated for certain time period (≥20 min) with successive shift (every 10 to 30 minutes) of the period, and the residual activity ratio was quantitatively determined and analyzed from the respective reaction rates averaged through the entire reaction time.

Ki [µM] | Structure (SMILES)
7.2 | Nc1cnc(-c2ccccc2)n(CC(=O)NC(Cc2ccccc2)C(=O)C(F)(F)F)c1=O (stereo not drawn) [Example 2, 2-(5-amino-6-oxo-2-phenyl-1,6-dihydro-1-pyrimidyl)-N-(1-benzyl-3,3,3-trifluoro-2-oxopropyl)acetamide]
5.6 | O=C(Cn1c(-c2ccc(F)cc2)ncc(NC(=O)OCc2ccccc2)c1=O)NC(Cc1ccccc1)C(=O)C(F)(F)F (stereo not drawn) [Example 3, 2-[5-benzyloxycarbonylamino-2-(4-fluorophenyl)-6-oxo-1,6-dihydro-1-pyrimidyl]-N-(1-benzyl-3,3,3-trifluoro-2-oxopropyl)acetamide]
4.1 | Nc1cnc(-c2ccc(F)cc2)n(CC(=O)NC(Cc2ccccc2)C(=O)C(F)(F)F)c1=O (stereo not drawn) [Example 4, 2-[5-amino-2-(4-fluorophenyl)-6-oxo-1,6-dihydro-1-pyrimidyl]-N-(1-benzyl-3,3,3-trifluoro-2-oxopropyl)acetamide]
8.7 | Cc1ccc(-c2ncc(NC(=O)OCc3ccccc3)c(=O)n2CC(=O)NC(Cc2ccccc2)C(=O)C(F)(F)F)cc1 (stereo not drawn) [Example 5, 2-[5-benzyloxycarbonylamino-6-oxo-2-(p-tolyl)-1,6-dihydro-1-pyrimidyl]-N-(1-benzyl-3,3,3-trifluoro-2-oxopropyl)-acetamide]
7 | Cc1ccc(-c2ncc(N)c(=O)n2CC(=O)NC(Cc2ccccc2)C(=O)C(F)(F)F)cc1 (stereo not drawn) [Example 6, 2-[5-amino-6-oxo-2-(p-tolyl)-1,6-dihydro-1-pyrimidyl]-N-(1-benzyl-3,3,3-trifluoro-2-oxopropyl)acetamide]
4.8 | Cc1cccc(-c2ncc(NC(=O)OCc3ccccc3)c(=O)n2CC(=O)NC(Cc2ccccc2)C(=O)C(F)(F)F)c1 (stereo not drawn) [Example 7, 2-[5-benzyloxycarbonylamino-6-oxo-2-(m-tolyl)-1,6-dihydro-1-pyrimidyl]-N-(1-benzyl-3,3,3-trifluoro-2-oxopropyl)-acetamide]
